Results reported in patent US20130190190A1, “MOLECULAR TARGETS FOR MODULATING INTRAOCCULAR PRESSURE AND DIFFERENTIATION OF STEROID RESPONSES VERSUS NON-RESPONDERS” (priority 2007, published 2013).

Assay: Intraocular pressure (IOP) change in study eyes of patients after a single intravitreal triamcinolone acetonide (IVTA) injection
Type: in vivo, human
Settings: 56 eyes
Method: Patients who were recruited were offered treatment with IVTA for various retinal diseases or who had received IVTA in the past. Each patient was treated with IVTA, 4 mg in 0.1 cc, for a variety of indications, at the discretion of the treating physician. Inclusion criteria included age greater than 18 years and the ability to give appropriate informed consent. Exclusion criteria included prior pars plana vitrectomy in the study eye, anterior-segment neovascularization in the study eye, the use of any medication intended to lower IOP in the study eye, or a history of glaucoma, suspected glaucoma, or ocular hypertension in the study eye. All IOP measurements were as per the treating physician's standard practice, typically either applanation tonometry or Tono-pen (Reichert, Depew, N.Y.). No standardized IOP measurement protocol was followed. Intraocular pressure (TOP) was recorded in the study eye prior to treatment with IVTA (baseline IOP). Follow-up was performed at the discretion of the treating physician. On each subsequent visit, IOP was recorded (follow-up IOP) for up to 1 year, or until the study eye was treated with any subsequent intraocular surgery, any subsequent intravitreal injection, or any medication intended to lower IOP. Therefore, during the time period relevant to this study, each eye received only one intravitreal injection. All treatment decisions were at the discretion of the treating physician. The highest follow-up IOP was recorded (maximum IOP). The primary outcome measure was the difference between maximum IOP and baseline IOP was calculated (A IOP), with a positive value indicating a rise in IOP.

Structure (SMILES): CC1(C)O[C@@H]2C[C@H]3[C@@H]4CCC5=CC(=O)C=C[C@]5(C)[C@@]4(F)[C@@H](O)C[C@]3(C)[C@]2(C(=O)CO)O1 [IVTA, triamcinolone acetonide]
- Mean Δ IOP (maximum IOP minus baseline IOP) (IVTA 4 mg in 0.1 cc intravitreal, follow-up up to 1 year, positive value = rise in IOP): 7 mmHg
- Eyes with Δ IOP greater than 10 mmHg (IVTA 4 mg intravitreal, follow-up up to 1 year, 9 eyes): 16%
- Eyes with Δ IOP less than 5 mmHg (IVTA 4 mg intravitreal, follow-up up to 1 year, 20 eyes): 36%
- Eyes with Δ IOP 5-10 mmHg (IVTA 4 mg intravitreal, follow-up up to 1 year, 27 eyes): 48%
- Mean maximum follow-up IOP (patients with retinal diseases, IVTA 4 mg in 0.1 cc, one intravitreal injection, highest IOP in follow-up up to 1 year, mean baseline IOP 15 mmHg): 22 mmHg
